# Measurements: paper PMC9814530, “Rapid de novo discovery of peptidomimetic affinity reagents for human angiotensin converting enzyme 2” (Communications Chemistry, 2022)
# *1 amine or outer side, *2 acyl side, *3 side chain or, on linkers, in order; H or OH if unused. Where a SMILES comes first, the peptide text is derived from it. Where no end group is shown, it is not given here. [ ]: non-standard residue; d: D form. Phe(3,4-(OMe)2) = COc1ccc(C[C@H](N)C(=O)O)cc1OC; Phe(3,4-F2) = N[C@@H](Cc1ccc(F)c(F)c1)C(=O)O; Ala(4-thiazolyl) = N[C@@H](Cc1cscn1)C(=O)O; X1 = O=C(C1(c2ccccc2)CCN([*:1])CC1)[*:2]; Phe(4-NH2) = Nc1ccc(C[C@H](N)C(=O)O)cc1; Met(O2) = CS(=O)(=O)CC[C@H](N)C(=O)O; Ala(cPr) = N[C@@H](CC1CC1)C(=O)O; Hyp = O=C(O)[C@@H]1C[C@@H](O)CN1; hArg = N=C(N)NCCCC[C@H](N)C(=O)O; Cha = N[C@@H](CC1CCCCC1)C(=O)O; 4Amb = NCc1ccc(C(=O)O)cc1; β3hS = N[C@@H](CO)CC(=O)O; Orn = NCCC[C@H](N)C(=O)O; βAla = NCCC(=O)O
# Columns and labels:
# 12ca5 = assay: BLI binding to an unrelated (off-target) protein; conditions: BLI, 12ca5 at 500 nM
# Description: Peptide binding validation was carried out using the ForteBio Octet RED96 system. The chamber temperature was kept constant at 30 °C with a plate agitation speed at 1000 rpm. Briefly, streptavidin (SA)-coated biosensor tips were dipped into 200 μL of 1.0–2.0 μM biotinylated peptide solution (in a kinetic buffer (K.B.): 1 × PBS with 0.1% BSA and 0.02% Tween-20) for peptides immobilization. Once loaded with peptides, the tips were then moved into solutions containing various concentrations (1000, 500, 250, 125, and 62.5 nM) of recombinant ACE2 protein (purchased from Sino Biological, Catalog number 10108-H08H) in the K.B. to obtain the association curve. After the 180 s association step, the tips were moved back into the K.B. to obtain the dissociation curve. Buffer-only and protein-only conditions (concentration at 1000 nM) were used as references for background subtraction. The association and dissociation curves were fitted with the ForteBio Biosystems Data Analysis Software under 5 experimental conditions (n = 5, global fitting algorithm, binding model 1:1) to calculate the apparent dissociation constant (KD). […]
# 4.4 The binding of ABP noncanonical peptides to an unrelated protein
# N6, and N8 to an unrelated protein, 12ca5, measured by BLI at concentration
# (§1) (1 picture or pasted object on this page, not shown here)
# ACE2 [1] = biological target: T1, ACE2 (Homo sapiens, UniProt Q9BYF1); assay: BLI binding competition of known ACE2 binders (AngII, MLN-4760) on the ABP-ACE2 interaction; design: Soluble ACE2 (5 µL, 0.62 mg/mL) was mixed with 50 µL normal human serum; conditions: immobilized biotinylated peptide; for inhibition of ABP binding to ACE2 by AngII: 500 nM ACE2 + 5 uM AngII (10-fold excess); for inhibition of ABP binding to ACE2 by MLN-4760: 500 nM ACE2 + 5 uM MLN-4760 (10-fold excess)
# ACE2 [2] = biological target: T1, ACE2; assay: Bio-layer interferometry (BLI) binding of immobilized biotinylated peptides to ACE2; conditions: BLI; for binding to ACE2 by BLI (in words): scrambled peptides tested at 250 nM ACE2; for Kd: biotinylated peptide on streptavidin tips, ACE2 1000-62.5 nM, 30 °C, global 1:1 fit, read-out: KD (dissociation constant) to ACE2
# Description: Peptide binding validation was carried out using the ForteBio Octet RED96 system. The chamber temperature was kept constant at 30 °C with a plate agitation speed at 1000 rpm. Briefly, streptavidin (SA)-coated biosensor tips were dipped into 200 μL of 1.0–2.0 μM biotinylated peptide solution (in a kinetic buffer (K.B.): 1 × PBS with 0.1% BSA and 0.02% Tween-20) for peptides immobilization. Once loaded with peptides, the tips were then moved into solutions containing various concentrations (1000, 500, 250, 125, and 62.5 nM) of recombinant ACE2 protein (purchased from Sino Biological, Catalog number 10108-H08H) in the K.B. to obtain the association curve. After the 180 s association step, the tips were moved back into the K.B. to obtain the dissociation curve. Buffer-only and protein-only conditions (concentration at 1000 nM) were used as references for background subtraction. The association and dissociation curves were fitted with the ForteBio Biosystems Data Analysis Software under 5 experimental conditions (n = 5, global fitting algorithm, binding model 1:1) to calculate the apparent dissociation constant (KD).
# Supplementary Note 4: Binding affinity measurements
# 4.1 BLI raw binding data of noncanonical peptides […]
# affinity was reported using the kinetic fitting results ( KD is calculated by divide the […]
# off rate by on rate). […] The ACE2
# as §1
# 4.2 BLI raw binding data of canonical peptides
# Supplementary Fig. 20. The BLI binding curve fitting (red lines) of ABP C1-C4 and ABP C7-C9 from Library 1 AS-MS against ACE2.
# ACE2 concentration was 250 nM.
# ACE2 [3] = biological target: T1, ACE2; assay: ELISA detection of ACE2 coated from 1 x PBS; format: binding; conditions: ACE2 in 1 x PBS 10 pM-100 nM coated; biotinylated peptide 100 nM; streptavidin-HRP, TMB, A450
# Description: However, we observed a decreased detection sensitivity presumably due to the decreased amount of ACE2 being immobilized on the plate with many other serum proteins present. […] The plate was incubated with ABP N1 or control peptide, followed by streptavidin-HRP and TMB substrate. Absorbance was measured at 450 nm. The experiment was performed in technical triplicates (n = 3). Each data point, the mean signal as a bar, and error bars from experimental standard deviation, and statistical significance calculated with the unpaired Student’s t-test are shown. A serial dilution of soluble ACE2 was coated onto an ELISA plate (96-well format) overnight at 4 °C. The next day, the plate was blocked with 5% BSA in 1 × PBS supplement with 0.05% Tween-20 (PBST, pH 7.4) for 2–3 h at room temperature. […] Control groups are biotinylated peptide ABP N8 and PBST alone. The supernatant was then removed, and the wells were washed with PBST (3× 200 µL). Streptavidin-HRP conjugate in PBST (0.25 µg/mL, 100 µL) was added to each well and incubated for 30 min at room temperature. The plate was PBST-washed again (3 × 200 µL) before color development with 100 µL 1-Step™ Ultra TMB-ELISA Substrate Solution (Thermo Fisher, Catalog number 34028). After 10 min, the reaction was quenched with 2.0 M sulfuric acid (100 µL). Finally, the absorbance at 450 nm was measured on a microplate reader (BioTek) for all treated wells. […]
# T1 sequence (Q9BYF1 18-740 limits assumed): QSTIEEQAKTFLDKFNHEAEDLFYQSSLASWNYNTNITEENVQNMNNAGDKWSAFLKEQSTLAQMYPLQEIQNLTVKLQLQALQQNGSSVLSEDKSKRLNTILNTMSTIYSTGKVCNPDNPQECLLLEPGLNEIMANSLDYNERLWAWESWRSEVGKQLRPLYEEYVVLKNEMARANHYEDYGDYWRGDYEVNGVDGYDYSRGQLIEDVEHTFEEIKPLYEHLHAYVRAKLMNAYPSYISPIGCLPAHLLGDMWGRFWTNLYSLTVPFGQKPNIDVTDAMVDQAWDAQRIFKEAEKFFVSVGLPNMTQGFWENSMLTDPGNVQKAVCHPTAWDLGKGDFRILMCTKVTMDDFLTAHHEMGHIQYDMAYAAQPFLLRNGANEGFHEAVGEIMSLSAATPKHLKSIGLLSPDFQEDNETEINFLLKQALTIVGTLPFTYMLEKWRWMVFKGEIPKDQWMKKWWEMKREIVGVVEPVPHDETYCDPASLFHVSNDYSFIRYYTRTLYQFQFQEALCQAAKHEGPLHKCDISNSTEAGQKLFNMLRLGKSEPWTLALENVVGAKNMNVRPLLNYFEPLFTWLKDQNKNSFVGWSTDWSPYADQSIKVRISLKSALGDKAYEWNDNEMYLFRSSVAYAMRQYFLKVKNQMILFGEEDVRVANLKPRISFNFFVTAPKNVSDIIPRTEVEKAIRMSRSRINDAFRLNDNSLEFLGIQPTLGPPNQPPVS
binding to ACE2 by BLI (in words) (ACE2 [2]),Compound,binding to unrelated protein 12ca5 (in words) (12ca5),also measured
–,"COc1ccc(C[C@H](NC(=O)[C@H](Cc2ccc(F)c(F)c2)NC(=O)[C@@H]2C[C@@H](O)CN2C(=O)[C@H]2CCCN2C(=O)[C@H]2CCCN2C(=O)CNC(=O)[C@H](CC2CC2)NC(=O)[C@H](Cc2cscn2)NC(=O)[C@@H](N)CC2CC2)C(=O)N[C@@H](Cc2cscn2)C(=O)NCCC(=O)NCc2ccc(C(=O)N[C@@H](CCCCN)C(N)=O)cc2)cc1OC [ABP N4] (H-[Ala(cPr)][Ala(4-thiazolyl)][Ala(cPr)]G[dP][dP][Hyp][Phe(3,4-F2)][Phe(3,4-(OMe)2)][Ala(4-thiazolyl)][βAla][4Amb]K-NH2)",minimal binding,binding to unrelated protein 12ca5 (in words) (12ca5; listed as N4): No apparent binding; inhibition of ABP binding to ACE2 by AngII (ACE2 [1]): not inhibited; inhibition of ABP binding to ACE2 by MLN-4760 (ACE2 [1]): completely inhibited
no binding,"CS(=O)(=O)CC[C@H](NC(=O)[C@H]1CCCN1C(=O)[C@H](CCC(N)=O)NC(=O)CNC(=O)[C@H](Cc1ccc(F)c(F)c1)NC(=O)[C@H](Cc1cscn1)NC(=O)[C@@H](N)CC1CC1)C(=O)N[C@@H](CC1CCCCC1)C(=O)N[C@@H](CCC(N)=O)C(=O)N[C@@H](Cc1cscn1)C(=O)NCCC(=O)N[C@@H](Cc1cscn1)C(=O)N[C@@H](CCCCN)C(N)=O [ABP N5] (H-[Ala(cPr)][Ala(4-thiazolyl)][Phe(3,4-F2)]GQ[dP][Met(O2)][Cha]Q[Ala(4-thiazolyl)][βAla][Ala(4-thiazolyl)]K-NH2; N-terminus assumed)",No apparent binding,–
–,"CS(=O)(=O)CC[C@H](NC(=O)[C@H](Cc1ccc(F)c(F)c1)NC(=O)[C@H](CCCN)NC(=O)[C@@H](N)CC1CC1)C(=O)N1C[C@H](O)C[C@H]1C(=O)N[C@@H](Cc1cscn1)C(=O)N1CCC[C@@H]1C(=O)N[C@@H](CCC(N)=O)C(=O)N[C@@H](Cc1ccc(F)c(F)c1)C(=O)N[C@@H](CC1CCCCC1)C(=O)N[C@@H](CC1CCCCC1)C(=O)NCCC(=O)N[C@@H](CCCCN)C(N)=O [ABP N6] (H-[Ala(cPr)][Orn][Phe(3,4-F2)][Met(O2)][Hyp][Ala(4-thiazolyl)][dP]Q[Phe(3,4-F2)][Cha][Cha][βAla]K-NH2)",minimal binding,binding to unrelated protein 12ca5 (in words) (12ca5; listed as N6): No apparent binding; inhibition of ABP binding to ACE2 by AngII (ACE2 [1]): not inhibited; inhibition of ABP binding to ACE2 by MLN-4760 (ACE2 [1]): not inhibited
No apparent binding,"CS(=O)(=O)CC[C@H](NC(=O)C[C@H](CO)NC(=O)[C@H](CC1CC1)NC(=O)[C@@H](N)Cc1cscn1)C(=O)N[C@@H](CC1CCCCC1)C(=O)N[C@@H](Cc1cscn1)C(=O)N[C@@H](CCCN)C(=O)N[C@@H](Cc1ccc(F)c(F)c1)C(=O)N[C@@H](CCCN)C(=O)N[C@@H](CCC(N)=O)C(=O)NCC(=O)N[C@@H](Cc1ccc(N)cc1)C(=O)N[C@@H](CCCCN)C(N)=O [Scrm N1.1] (H-[Ala(4-thiazolyl)][Ala(cPr)][β3hS][Met(O2)][Cha][Ala(4-thiazolyl)][Orn][Phe(3,4-F2)][Orn]QG[Phe(4-NH2)]K-NH2; N-terminus assumed)",–,–
No apparent binding,"CS(=O)(=O)CC[C@H](N)C(=O)N[C@@H](CCCN)C(=O)N[C@@H](CC1CCCCC1)C(=O)N[C@@H](Cc1ccc(F)c(F)c1)C(=O)N[C@@H](Cc1ccc(F)c(F)c1)C(=O)N[C@@H](CO)CC(=O)NCC(=O)N[C@@H](Cc1cscn1)C(=O)N[C@@H](Cc1cscn1)C(=O)N[C@@H](CC1CC1)C(=O)N[C@@H](CCC(N)=O)C(=O)N[C@@H](CCCN)C(=O)N[C@@H](CCCCN)C(N)=O [Scrm N1.2] (H-[Met(O2)][Orn][Cha][Phe(3,4-F2)][Phe(3,4-F2)][β3hS]G[Ala(4-thiazolyl)][Ala(4-thiazolyl)][Ala(cPr)]Q[Orn]K-NH2; N-terminus assumed)",–,–
–,LHKQFGWHWFGFK-NH2 [ABP C3],–,Kd (ACE2 [2]): 35 nM
no binding,LQAKPVPQFWPFK-NH2 [ABP C5],–,–
no binding,LQKFLGERFPGWK-NH2 [ABP C6],–,–
–,LQRGVFGFPYRVK-NH2 [ABP C7],–,Kd (ACE2 [2]): 26 nM
–,LQWHPAYWFMQVK-NH2 [ABP C8],–,Kd (ACE2 [2]): 36 nM

Compound,binding to ACE2 by BLI (in words) (ACE2 [2]),binding to unrelated protein 12ca5 (in words) (12ca5),also measured
"CS(=O)(=O)CC[C@H](NC(=O)[C@H](Cc1ccc(F)c(F)c1)NC(=O)[C@H](CCS(C)(=O)=O)NC(=O)[C@H](CC1CCCCC1)NC(=O)[C@H](CC(=O)O)NC(=O)C1(c2ccccc2)CCN(C(=O)CCNC(=O)CNC(=O)[C@H]2CCCN2C(=O)[C@H](CCCCNC(=N)N)NC(=O)[C@H](Cc2cscn2)NC(=O)[C@@H](N)CC2CC2)CC1)C(=O)N[C@@H](CCCCN)C(N)=O [ABP N8] (H-[Ala(cPr)][Ala(4-thiazolyl)][hArg][dP]G[βAla][X1]D[Cha][Met(O2)][Phe(3,4-F2)][Met(O2)]K-NH2; N-terminus assumed)",no binding,No apparent binding,ELISA detection of ACE2 (in words) (ACE2 [3]): no binding
